In one assay the test system is GDF8. Put plainly: AlphaScreen SureFire p-SMAD3 (Ser423/425) assay, GDF8-stimulated cells. The assay is classed as cell-based. The following applies: Mus musculus. The source says: (§1) The p-SMAD-3 (Ser423/425) SureFire® assay has been designed to measure the phosphorylation of endogenous cellular p-SMAD-3 (Ser423/425) in cell lysates and is a system for the screening of both modulators of receptor activation (e.g. agonists and antagonists) as well as agents acting intracellularly, such as small molecule inhibitors of upstream events. The assay will measure p-SMAD-3 (Ser423/425) activation by either cloned or endogenous receptors, and can be applied to primary cells.
(§2) 96-well Assay Protocol for 293FT and RMS13 adherent cells can be carried out manually or in high throughput with liquid handling robots.
(§3) The cells (80 μL of cells for 96 well plates) were plated in collagen coated tissue culture plates in RPMI or FreeStyle medium (Invitrogen) and incubated overnight. For manual analysis, 6 plates for GDF8, 6 plates for TGFβ, and optionally 6 plates for Alk5ca(ALK5 constitutively active) were used.
(§4) The compound dilution plates were prepared as follows: 12 μL of DMSO was transferred into first column of 96-well plate, and 16 μL of DMSO was transferred into columns 2-12 of the 96-well plate. 12 μL of compound solution was transferred into first column of the DMSO-containing 96-well plate. Three-fold dilution was performed up to column 10 of the DMSO-containing 96-well plate.
(§5) The plate containing cells were treated with compounds for about 10 minutes, and then ligand was added. GDF8 or TGFb was added to plates to stimulate. 293FL cells were stimulatedfor 90 minutes at 37° C.; and RMS13 cells were stimulated for 60 minutes at 37° C. The medium was then removed from the cells, and 1× Lysis Buffer (about 25 μL) was added and the plate was gently agitated on plate shaker for 5-10 minutes.
(§6) The lysate (5 μL) was then placed into 384-well shallow plates avoiding the generation of bubbles. To this, the Reaction Buffer+Activation Buffer+AlphaScreen® Acceptor beadsmixture (5 μL) was added. The plate was sealed with adhesive cover and shielded from light (e.g., with metal foil), and agitated gently on plate shaker for 2 hours at room temperature.
(§7) Dilution buffer+AlphaScreen® Donor beads (2 μL) was then added, and the plate was intubated on the plate shaker for an additional 1½ hours. After completion, the plate was read on Synergy-4 or Enspire plate reader, using AlphaScreen® pSMAD3® settings.
(§8) Representative results for inhibition of GDF8 (data=GDF pSMAD (MPC11) (μM)) and TGF-β (data=TGF-β pSMAD (MPC-11) (μM)) signaling are shown in Table 1(A=<0.05 μM, B=0.05−<0.1 μM, C=0.1−<1.0 μM, D=>1.0 μM): […]
A general note: In Alpha technology, singlet oxygen from a donor bead excites a nearby acceptor bead.

Another assay deals with TGF-β. In words: AlphaScreen SureFire p-SMAD3 (Ser423/425) assay, TGF-β-stimulated cells. The following applies: Mus musculus. Type of assay: cell-based.
Text: as §1, §2, §3, §4, §5, §6, §7, §8

[1] abbreviates: MPC-11, read-out: GDF8: inhibition of GDF8 signaling, GDF pSMAD (MPC11), p-SMAD3 (Ser423/425) AlphaScreen in cell lysate, GDF8 stimulation.
Setting [2] is: MPC-11, read-out: TGF-β: inhibition of TGF-β signaling, TGF-β pSMAD (MPC-11), p-SMAD3 (Ser423/425) AlphaScreen in cell lysate, TGF-β stimulation.
The mark [3] stands for this setting: MPC-11, p-SMAD3 (Ser423/425) AlphaScreen in cell lysate, MPC11, GDF8 stimulation, read-out: GDF8: inhibition of GDF8 signaling, GDF pSMAD (MPC11).
[4] abbreviates: p-SMAD3 (Ser423/425) AlphaScreen in cell lysate, MPC-11, TGF-β stimulation, read-out: TGF-β: inhibition of TGF-β signaling, TGF-β pSMAD (MPC-11).

From patent publication US10696693B2, “Fused imidazole derivatives as TGF-beta inhibitors” (Rigel Pharmaceuticals, Inc., priority 2014, dated 2020) come the findings set out here.

Where two headings read alike, the source gives them in different places.

As for `Cc1cc(-c2nc3n(c2-c2ccc4ncsc4c2)CCC3)c(C)cc1F` [Compound 309, 6-(2-(4-fluoro-2,5-dimethylphenyl)-6,7-dihydro-5H-pyrrolo[1,2-a]imidazol-3-yl)benzo[d]thiazole], the IC50 in the assay on GDF8 (setting [1]) and in the assay with TGF-β (setting [2]) was 100 to 1000 nM each time.

For `Fc1cccc(F)c1-c1nc2n(c1-c1ccc3[nH]ncc3c1)CCC2` [Compound 212, 5-(2-(2,6-difluorophenyl)-6,7-dihydro-5H-pyrrolo[1,2-a]imidazol-3-yl)-1H-indazole], the IC50 in the assay with GDF8 (setting [3]) and with TGF-β (setting [4]) was more than 1000 nM each time.

Take `Cc1c(F)ccc(-c2nc3n(c2-c2ccc4ncccc4c2)CCC3)c1F` [Compound 283, 6-(2-(2,4-difluoro-3-methylphenyl)-6,7-dihydro-5H-pyrrolo[1,2-a]imidazol-3-yl)quinoline]: the IC50 in the assay on GDF8 (setting [3]) is 100 to 1000 nM; in the assay with TGF-β (setting [4]) it was more than 1000 nM.

As to `Fc1ccc(-c2nc3occn3c2-c2ccc3ncccc3c2)cc1F` [Compound 145, 5-(quinolin-6-yl)-6-(3,4-difluorophenyl)imidazo[2,1-b]oxazole], the values for the IC50 with GDF8 (setting [3]) and with TGF-β (setting [4]) were 50 to 100 nM and 100 to 1000 nM, respectively.

Regarding `Cc1c(F)ccc(-c2nc3n(c2-c2ccc4ncsc4c2)CCC3)c1C` [Compound 329, 6-(2-(4-fluoro-2,3-dimethylphenyl)-6,7-dihydro-5H-pyrrolo[1,2-a]imidazol-3-yl)benzo[d]thiazole], the IC50 in the assay on GDF8 (setting [1]) was 100 to 1000 nM; in the assay on TGF-β (setting [2]), more than 1000 nM.

As to `OCC1CCC2(CC1)Cc1nc(-c3ccc(F)cc3)c(-c3ccc4nccnc4c3)n1C2` (stereo not drawn) [Compound 336, (2′-(4-fluorophenyl)-3′-(quinoxalin-6-yl)-5′H,7′H-spiro[cyclohexane-1,6′-pyrrolo[1,2-a]imidazol]-4-yl)methanol], the IC50 in the assay on GDF8 (setting [1]) and with TGF-β (setting [2]) was more than 1000 nM each time.

In the case of `Cc1cc(-c2nc3n(c2-c2ccc4nccnc4c2)CCC3)c(F)cc1F` [Compound 270, 6-(2-(2,4-difluoro-5-methylphenyl)-6,7-dihydro-5H-pyrrolo[1,2-a]imidazol-3-yl)quinoxaline], the figures for the IC50 with GDF8 (setting [3]) and in the assay with TGF-β (setting [4]) were less than 50 nM and 50 to 100 nM, respectively.

`Fc1ccccc1-c1nc2n(c1-c1cc3cnccc3s1)CCC2` [Compound 100, 2-(2-(2-fluorophenyl)-6,7-dihydro-5H-pyrrolo[1,2-a]imidazol-3-yl)thieno[3,2-c]pyridine]: the IC50 with GDF8 (setting [3]) is 100 to 1000 nM; in the assay on TGF-β (setting [4]), more than 1000 nM.

As for `COCCOc1cnc2ccc(-c3c(-c4ccc(F)c(Cl)c4)nc4n3CCC4)cc2n1` [Compound 355, 7-(2-(3-chloro-4-fluorophenyl)-6,7-dihydro-5H-pyrrolo[1,2-a]imidazol-3-yl)-2-(2-methoxyethoxy)quinoxaline], the IC50 in the assay with GDF8 (setting [1]) and with TGF-β (setting [2]) was 100 to 1000 nM each time.

Take `Fc1ccc(-c2nc3n(c2-c2ccc4ncsc4c2)CCC3)cc1F` [Compound 207, 6-(2-(3,4-difluorophenyl)-6,7-dihydro-5H-pyrrolo[1,2-a]imidazol-3-yl)benzo[d]thiazole]: the IC50 with GDF8 (setting [3]) and in the assay on TGF-β (setting [4]) was 100 to 1000 nM in each case.

Regarding `Fc1ccc(-c2nc3n(c2-c2ccc4nccnc4c2)CCC3)cc1F` [Compound 208, 6-(2-(3,4-difluorophenyl)-6,7-dihydro-5H-pyrrolo[1,2-a]imidazol-3-yl)quinoxaline], the IC50 with GDF8 (setting [3]) was 100 to 1000 nM; in the assay on TGF-β (setting [4]), more than 1000 nM.

With `Cc1cc(F)c(-c2nc3n(c2-c2ccc4nccnc4c2)CCC3)cc1F` [Compound 286, 6-(2-(2,5-difluoro-4-methylphenyl)-6,7-dihydro-5H-pyrrolo[1,2-a]imidazol-3-yl)quinoxaline], the IC50 in the assay with GDF8 (setting [1]) and in the assay on TGF-β (setting [2]) was more than 1000 nM throughout.

For `COc1c(C)cc(-c2nc3n(c2-c2ccc4ncnn4c2)CCC3)cc1C` [Compound 30, 6-(2-(4-methoxy-3,5-dimethylphenyl)-6,7-dihydro-5H-pyrrolo[1,2-a]imidazol-3-yl)-[1,2,4]triazolo[1,5-a]pyridine], the IC50 in the assay with GDF8 (setting [3]) and in the assay on TGF-β (setting [4]) was more than 1000 nM each time.

Turning to `Fc1ccc(Cl)cc1-c1nc2n(c1-c1ccc3nccn3c1)CCC2` [Compound 83], the IC50 in the assay with GDF8 (setting [3]) and with TGF-β (setting [4]) was less than 50 nM throughout.

For the molecule `Fc1ccc(-c2nc3occn3c2-c2ccc3ncsc3c2)c(F)c1` [Compound 156, 5-(benzo[d]thiazol-6-yl)-6-(2,4-difluorophenyl)imidazo[2,1-b]oxazole], the IC50 with GDF8 (setting [3]) is less than 50 nM; in the assay with TGF-β (setting [4]), 50 to 100 nM.

With `Cc1cc(-c2nc3n(c2-c2ccc4ncccc4c2)CCC3)c(C)cc1F` [Compound 311, 6-(2-(4-fluoro-2,5-dimethylphenyl)-6,7-dihydro-5H-pyrrolo[1,2-a]imidazol-3-yl)quinoline], the IC50 in the assay on GDF8 (setting [3]) is 100 to 1000 nM; in the assay on TGF-β (setting [4]), more than 1000 nM.

Turning to `Fc1cc(F)c(-c2nc3n(c2-c2ccc4ncnn4c2)CCC3)cc1F` [Compound 14, 6-(2-(2,4,5-trifluorophenyl)-6,7-dihydro-5H-pyrrolo[1,2-a]imidazol-3-yl)-[1,2,4]triazolo[1,5-a]pyridine], the IC50 in the assay with GDF8 (setting [3]) is less than 50 nM; in the assay with TGF-β (setting [4]) it was 100 to 1000 nM.

`COc1ccc(-c2nc3n(c2-c2ccc4nccnc4c2)CCC3)cc1` [Compound 351, 6-(2-(4-methoxyphenyl)-6,7-dihydro-5H-pyrrolo[1,2-a]imidazol-3-yl)quinoxaline]: the IC50 in the assay on GDF8 (setting [1]) and in the assay with TGF-β (setting [2]) was more than 1000 nM throughout.

Turning to `Fc1cc(F)c(-c2nc3n(c2-c2ccc4ncnn4c2)CCN3)cc1F` [Compound 105, 6-(6-(2,4,5-trifluorophenyl)-2,3-dihydro-1H-imidazo[1,2-a]imidazol-5-yl)-[1,2,4]triazolo[1,5-a]pyridine], the IC50 in the assay with GDF8 (setting [3]) and in the assay on TGF-β (setting [4]) was less than 50 nM each time.

For the molecule `CNC(=O)C1CCC2(CC1)Cc1nc(-c3ccc(F)cc3)c(-c3ccc4ncnn4c3)n1C2` (stereo not drawn) [Compound 78, 3′-([1,2,4]triazolo[1,5-a]pyridin-6-yl)-2′-(4-fluorophenyl)-N-methyl-5′H,7′H-spiro[cyclohexane-1,6′-pyrrolo[1,2-a]imidazole]-4-carboxamide], the IC50 in the assay with GDF8 (setting [3]) and in the assay with TGF-β (setting [4]) was more than 1000 nM in each case.

In the case of `Cc1cc(-c2nc3n(c2-c2ccc4nccn4c2)CCC3)ccc1F` [Compound 3, 6-(2-(4-fluoro-3-methylphenyl)-6,7-dihydro-5H-pyrrolo[1,2-a]imidazol-3-yl)imidazo[1,2-a]pyridine], the IC50 was in the range of 50 to 100 nM in the assay with GDF8 (setting [3]) and 100 to 1000 nM in the assay on TGF-β (setting [4]).

In the case of `Clc1ccc(Cl)c(-c2nc3n(c2-c2ccc4ncccc4c2)CCC3)c1` [Compound 343, 6-(2-(2,5-dichlorophenyl)-6,7-dihydro-5H-pyrrolo[1,2-a]imidazol-3-yl)quinoline], the IC50 with GDF8 (setting [1]) and with TGF-β (setting [2]) was 100 to 1000 nM in each case.

In the case of `Cc1ccc(F)c(-c2nc3n(c2-c2ccc4nccnc4c2)CCC3)c1` [Compound 357, 6-(2-(2-fluoro-5-methylphenyl)-6,7-dihydro-5H-pyrrolo[1,2-a]imidazol-3-yl)quinoxaline], the IC50 in the assay on GDF8 (setting [3]) and in the assay with TGF-β (setting [4]) was less than 50 nM throughout.

Turning to `c1ccc(C2=C(c3ccc4cn[nH]c4c3)C3CCCC3=N2)nc1` (stereo not drawn) [Compound 366, 6-(2-(pyridin-2-yl)-3a,4,5,6-tetrahydrocyclopenta[b]pyrrol-3-yl)-1H-indazole], the IC50 is less than 50 nM in the assay on GDF8 (setting [3]) and 50 to 100 nM in the assay on TGF-β (setting [4]).
